Data: patent US20150079590A1, “CHARACTERIZATION AND ANALYSIS OF THE COMPOSITION AND DYNAMICS OF THE MAMMALIAN RIBOPROTEOME” (Beth Israel Deaconess Medical Center, Inc., priority 2013, published 2015)

Experiments:
[1] = system: riboproteomes of PPC1 prostate cancer cells; experiment: SILAC riboproteomic analysis of polysomes upon mTOR inhibition; type: cell-based, human
Protocol: SILAC labeled protein mixtures were run by SDS-PAGE and gel lanes were cut into 8 sections for overnight digestion at pH 8.0 with modified sequencing grade trypsin (Promega Corp.). Peptide mixtures were eluted and each gel section was analyzed separately by microcapillary liquid chromatography-tandem mass spectrometry (LC-MS/MS) using the EASY-nLC nanoflow HPLC (Thermo Fisher Scientific) with a 75 μm inner diameter×15 cm length Picofrit capillary column (New Objective, Inc.) self-packed with 5 μm Magic C18 resin (Michrom Bioresources) coupled to a hybrid LTQ Orbitrap XL-ETD mass spectrometer (Thermo Fisher Scientific). The LTQ Orbitrap XL was operated in data-dependent acquisition (DDA) Top 5 mode (1 profile FT-MS spectrum followed by 6 centroided IT-MS/MS spectra). The resolution was 30,000 in FT-MS mode and MS/MS spectra were read out at low resolution in the LTQ XL ion trap. […] Carbamidomethylation of cysteine was set as fixed modification and variable modifications were oxidation of methionine and protein N-acetylation. […] Initial peptide mass tolerance was set to 12 ppm and fragment ion mass tolerance was set to 0.8 Da. Two missed cleavages were allowed and the minimal length required for a peptide was six amino acids. […]

[2] = system: binding of LARP1 at the polysome; experiment: Micrococcal nuclease (MN) assay on pooled sucrose gradient fractions, ribosome pelleting and western blot; conditions: cells treated with PP242 prior to analysis
Protocol: Pooled sucrose gradient fractions containing LARP1 protein, were treated with and without MN. Ribosomes were subsequently pelleted by ultracentrifugation, and the protein in supernatant and pellet isolated for western blot analysis.

[3] = system: ribosome-mRNA complexes of PC3 prostate cancer cells; experiment: Puromycin-mediated dissociation of ribosome-mRNA complexes, western blot of polysomal fractions; type: biochemical, human; conditions: 1 mM puromycin in lysis buffer, 37° C. 15 min
Protocol: Puromycin-induced polysome dissociation was carried out by the addition of 1 mM puromycin directly to the lysis buffer lacking cycloheximide as previously described (Blobel and Sabatini, Proc Natl Acad Sci USA 68:390-394, 1971; Fuchs et al., J Mol Biol. 410:118-130, 2011). Briefly, following lysis, the samples were incubated at 37° C. for 15 min to dissociate ribosome-mRNA complexes. Lysates were centrifuged at 13,000 rpm for 5 min at 4° C., and the supernatant carefully removed and loaded on a 15%-50% sucrose gradient. Gradients were centrifuged and fractionated as described above.
Cells were lysed in lysis buffer containing Complete Mini protease inhibitors (EDTA free) (Roche) and a Phosphatase Inhibitor cocktail (Thermo Scientific). 5-50 μg of total protein was subjected to SDS-PAGE on 4-12% Bis-Tris acrylamide NuPAGE gels in MOPS SDS running buffer (Invitrogen). The following primary antibodies were used: MARCKS, phospho-MARCKS (S152/156), Integrin β1, Calmodulin, Hsp27, Hsp60, RpL13a, RpL7a, and RpS6 (all Cell Signaling), HSP90, (BD Bioscience; BD Transduction Laboratories), hnRNPC1/C2 (Millipore), Rps14 and β-actin (all from Santa Cruz Biotechnologies). The NPM antibody was from DAKO and the IGF2BP3 antibody was from ProteinTech. Subsequently, membranes were incubated with secondary, HRP-tagged antibodies (Amersham) and signals were visualized with ECL or ECL plus (Amersham). […]

Row | Compound | disassociation of proteins incl. ribosomal proteins (RpL4, RpL6, RpS6) from the riboproteome ([1]; PP242 500 nM for three hours vs DMSO) | impact on the composition of the riboproteome ([1]; rapamycin 20 nM or PP242 500 nM for three hours vs DMSO, SILAC mass spectrometry of polysomes) | LARP1 in supernatant after ribosome pelleting [2] | PABP association with polysome fractions [2] | RpS6 and RpL13a on polyribosomes ([3]; pooled polysomal fractions) | presence of MARCKS in polyribosome fractions ([3]; PC3 cells)
1 | CC(C)n1nc(-c2cc3cc(O)ccc3[nH]2)c2c(N)ncnc21 [PP242] | rapid and significant disassociation from the riboproteome | much stronger and more robust perturbation of the riboproteome | more LARP1 observed in the supernatant | remain tightly intact with polysome fractions |  | 
2 | COc1ccc(C[C@H](N)C(=O)N[C@H]2[C@@H](O)[C@H](n3cnc4c(N(C)C)ncnc43)O[C@@H]2CO)cc1 [puromycin] |  |  |  |  | loss of RpS6 and RpL13a from polyribosomes | dramatically decreased
